Experimental data as given in the NIST ThermoML archive (doi:10.1016/j.fluid.2010.10.028).
Numbers after ± are expanded uncertainties.

Assay: xn = mol fraction of the nth substance listed
Settings: Liquid, Vibrating tube method

CC(C)=O [acetone] + CCCCCCC
Settings | mass density [kg/m3]
367.5 K, 89850 kPa, x1 = 0.801 | 760.09 ± 1.5
367.5 K, 89870 kPa, x1 = 0.492 | 727.6 ± 1.6
367.5 K, 94840 kPa, x1 = 0.801 | 763.33 ± 1.5
367.5 K, 94860 kPa, x1 = 0.492 | 730.65 ± 1.6
367.5 K, 99820 kPa, x1 = 0.801 | 766.48 ± 1.5
367.5 K, 104790 kPa, x1 = 0.801 | 769.51 ± 1.5
367.5 K, 109770 kPa, x1 = 0.801 | 772.47 ± 1.6
367.5 K, 114840 kPa, x1 = 0.801 | 775.42 ± 1.6
367.5 K, 119830 kPa, x1 = 0.801 | 778.22 ± 1.6
367.5 K, 124850 kPa, x1 = 0.801 | 780.96 ± 1.6
367.5 K, 129850 kPa, x1 = 0.801 | 783.62 ± 1.6
377.39 K, 1230 kPa, x1 = 0.611 | 632.91 ± 1.2
377.39 K, 4860 kPa, x1 = 0.611 | 640.68 ± 1.2
377.39 K, 9830 kPa, x1 = 0.7024 | 659.14 ± 1.2
377.39 K, 9860 kPa, x1 = 0.611 | 650.09 ± 1.2
377.39 K, 14860 kPa, x1 = 0.611 | 658.35 ± 1.2
377.39 K, 39860 kPa, x1 = 0.611 | 690.09 ± 1.3
377.39 K, 74880 kPa, x1 = 0.611 | 720.69 ± 1.5
377.39 K, 84850 kPa, x1 = 0.611 | 727.78 ± 1.5
377.39 K, 99800 kPa, x1 = 0.611 | 737.52 ± 1.6
377.39 K, 119850 kPa, x1 = 0.611 | 749.19 ± 1.7
377.39 K, 124860 kPa, x1 = 0.611 | 751.9 ± 1.7
377.4 K, 1220 kPa, x1 = 0.492 | 624.83 ± 1.2
377.4 K, 1220 kPa, x1 = 0.7024 | 641.88 ± 1.2
377.4 K, 1230 kPa, x1 = 0.801 | 652.62 ± 1.2
377.4 K, 4820 kPa, x1 = 0.7024 | 649.63 ± 1.2
377.4 K, 4850 kPa, x1 = 0.801 | 660.44 ± 1.2
377.4 K, 4860 kPa, x1 = 0.492 | 632.5 ± 1.2
377.4 K, 9850 kPa, x1 = 0.492 | 641.73 ± 1.2
377.4 K, 9860 kPa, x1 = 0.801 | 669.95 ± 1.2
377.4 K, 14830 kPa, x1 = 0.7024 | 667.51 ± 1.2
377.4 K, 14850 kPa, x1 = 0.801 | 678.33 ± 1.2
377.4 K, 14860 kPa, x1 = 0.492 | 649.89 ± 1.2
377.4 K, 19830 kPa, x1 = 0.7024 | 675.07 ± 1.3
377.4 K, 19850 kPa, x1 = 0.492 | 657.2 ± 1.3
377.4 K, 19850 kPa, x1 = 0.801 | 685.9 ± 1.3
377.4 K, 19860 kPa, x1 = 0.611 | 665.8 ± 1.3
377.4 K, 24840 kPa, x1 = 0.492 | 663.85 ± 1.3
377.4 K, 24840 kPa, x1 = 0.7024 | 681.95 ± 1.3
377.4 K, 24860 kPa, x1 = 0.611 | 672.6 ± 1.3
377.4 K, 24870 kPa, x1 = 0.801 | 692.89 ± 1.3
377.4 K, 29840 kPa, x1 = 0.7024 | 688.29 ± 1.3
377.4 K, 29860 kPa, x1 = 0.611 | 678.86 ± 1.3
377.4 K, 34830 kPa, x1 = 0.7024 | 694.18 ± 1.3
377.4 K, 34840 kPa, x1 = 0.492 | 675.68 ± 1.3
377.4 K, 34870 kPa, x1 = 0.611 | 684.68 ± 1.3
377.4 K, 39820 kPa, x1 = 0.7024 | 699.65 ± 1.3
377.4 K, 39850 kPa, x1 = 0.492 | 681.01 ± 1.3
377.4 K, 44820 kPa, x1 = 0.7024 | 704.82 ± 1.3
377.4 K, 44850 kPa, x1 = 0.611 | 695.17 ± 1.4
377.4 K, 44870 kPa, x1 = 0.492 | 686.02 ± 1.4
377.4 K, 49820 kPa, x1 = 0.7024 | 709.68 ± 1.4
377.4 K, 49840 kPa, x1 = 0.492 | 690.72 ± 1.4
377.4 K, 49850 kPa, x1 = 0.611 | 699.96 ± 1.4
377.4 K, 54810 kPa, x1 = 0.7024 | 714.29 ± 1.4
377.4 K, 54870 kPa, x1 = 0.801 | 725.65 ± 1.4
377.4 K, 54930 kPa, x1 = 0.611 | 704.59 ± 1.4
377.4 K, 59810 kPa, x1 = 0.7024 | 718.67 ± 1.4
377.4 K, 59840 kPa, x1 = 0.492 | 699.41 ± 1.4
377.4 K, 59850 kPa, x1 = 0.801 | 730.07 ± 1.4
377.4 K, 59940 kPa, x1 = 0.611 | 708.91 ± 1.4
377.4 K, 64790 kPa, x1 = 0.7024 | 722.84 ± 1.4
377.4 K, 64830 kPa, x1 = 0.801 | 734.28 ± 1.4
377.4 K, 64920 kPa, x1 = 0.611 | 713 ± 1.4
377.4 K, 69890 kPa, x1 = 0.7024 | 726.94 ± 1.4
377.4 K, 69900 kPa, x1 = 0.611 | 716.92 ± 1.5
377.4 K, 69920 kPa, x1 = 0.492 | 707.37 ± 1.5
377.4 K, 69930 kPa, x1 = 0.801 | 738.44 ± 1.4
377.4 K, 74790 kPa, x1 = 0.4 | 757.14 ± 1.4
377.4 K, 74790 kPa, x1 = 0.8992 | 757.14 ± 1.4
377.4 K, 74870 kPa, x1 = 0.7024 | 730.75 ± 1.5
377.4 K, 74920 kPa, x1 = 0.801 | 742.33 ± 1.4
377.4 K, 79860 kPa, x1 = 0.7024 | 734.43 ± 1.5
377.4 K, 79880 kPa, x1 = 0.611 | 724.31 ± 1.5
377.4 K, 79890 kPa, x1 = 0.492 | 714.63 ± 1.5
377.4 K, 79910 kPa, x1 = 0.801 | 746.08 ± 1.5
377.4 K, 84840 kPa, x1 = 0.7024 | 737.97 ± 1.5
377.4 K, 84870 kPa, x1 = 0.492 | 718.02 ± 1.6
377.4 K, 84910 kPa, x1 = 0.801 | 749.68 ± 1.5
377.4 K, 89820 kPa, x1 = 0.7024 | 741.37 ± 1.5
377.4 K, 89840 kPa, x1 = 0.611 | 731.15 ± 1.6
377.4 K, 89860 kPa, x1 = 0.492 | 721.32 ± 1.6
377.4 K, 89880 kPa, x1 = 0.801 | 753.15 ± 1.5
377.4 K, 94790 kPa, x1 = 0.7024 | 744.65 ± 1.6
377.4 K, 94820 kPa, x1 = 0.611 | 734.38 ± 1.6
377.4 K, 94830 kPa, x1 = 0.492 | 724.48 ± 1.6
377.4 K, 94860 kPa, x1 = 0.801 | 756.48 ± 1.5
377.4 K, 99780 kPa, x1 = 0.7024 | 747.85 ± 1.6
377.4 K, 99820 kPa, x1 = 0.492 | 727.55 ± 1.6
377.4 K, 99840 kPa, x1 = 0.801 | 759.75 ± 1.5
377.4 K, 104750 kPa, x1 = 0.7024 | 750.93 ± 1.6
377.4 K, 104780 kPa, x1 = 0.611 | 740.53 ± 1.6
